Measured values: patent publication US11478433B2, “Nanomaterials with enhanced drug delivery efficiency” (Yale University, priority 2017, dated 2022)

Tests used:
[1] = Penetration through GI tract after oral gavage (IVIS, confocal microscopy)
Protocol: DTA SNPs encapsulating a near-infrared fluorescent dye, IR780, were prepared and administered to mice via oral gavage. After one hour, the GI tract was isolated, extensively washed, and imaged by IVIS®.

[2] = tested on: MDA-MB-231 flank tumor model; assay: Intravenous treatment of flank tumor model with PTX-loaded OA SNPs; type: in vivo; conditions: over 30 days following treatment
Protocol: Next, drug delivery via encapsulation in OA SNPs was assayed in treating the flank tumor model.

[3] = in vivo, cited from earlier work
MDA-MB-231 tumors = assay: Oral treatment of mice bearing MDA-MB-231 tumors; type: in vivo; conditions: twice a week
Protocol: The therapeutic benefit of PTX-loaded DTX SNPs was evaluated for treatment of […]. Mice bearing MDA-MB-231 tumors of ˜50 mm^3 size were treated twice a week with orally injected saline (as a control), empty DTA SNPs, free PTX, or PTX-loaded DTX SNPs (denoted as PTX-SNPs). Tumor volumes were measured three times a week. Mice were euthanized when tumor volume reached ˜1000 mm^3, at which point the tumors were excised and fixed in formalin for immunohistochemistry. Serial sections were obtained and stained with TUNEL for analysis of cellular apoptosis. The growth curve was plotted using the mean of the tumor volumes for each treatment group, at each time point.

[4] = tested on: human breast cancer MDA-MB-231 cells; assay: Toxicity on breast cancer cells in vitro; type: cell-based
Protocol: FIG. 7 is a line graph showing the percentage of growth (%) of human breast cancer MDA-MB-231 cells over different concentrations (μg/mL) of different samples: PTX, DTA SNPs (denoted in this graph as SNPs), PTX-encapsulated DTA SNPs (denoted as PTX-SNPs).
Human breast adenocarcinoma cell line, MDA-MB-231 cells, were purchased from American Type Culture Collection (ATCC, Rockville, Md., USA). Cells were grown in DMEM medium (Invitrogen) supplemented with 10% fetal bovine serum (FBS, Invitrogen), 100 units/mL penicillin, and 100 µg/mL streptomycin (Invitrogen) in a 37° C. incubator containing 5% CO2.

CCCN1/C(=C/C=C2\CCCC(/C=C/C3=[N+](CCC)c4ccccc4C3(C)C)=C2Cl)C(C)(C)c2ccccc21.[I-] [IR780]
location in GI tract ([1]; one hour after oral gavage, IR780, IVIS imaging): located mostly in the stomach

CC(=O)O[C@H]1C(=O)[C@@]2(C)[C@H]([C@H](OC(=O)c3ccccc3)[C@]3(O)C[C@H](OC(=O)[C@H](O)[C@@H](NC(=O)c4ccccc4)c4ccccc4)C(C)=C1C3(C)C)[C@]1(OC(C)=O)CO[C@@H]1C[C@@H]2O [PTX, paclitaxel]
tumor volume / tumor growth [2]: grew substantially
oral bioavailability ([3]; po): less than 2%
reduction of tumor volumes compared to saline control (MDA-MB-231 tumors): 21%
toxicity on MDA-MB-231 cells [4]: comparable toxicity

CCN(CC)c1ccc2c(-c3ccccc3C(=O)O)c3ccc(=[N+](CC)CC)cc-3oc2c1.[Cl-] [rhodamine B]
fluorescence in intestinal villi ([1]; oral administration, confocal microscopy): limited fluorescence

C[C@@H]1CC[C@H]2[C@@H](C)C(=O)O[C@@H]3O[C@@]4(C)CC[C@@H]1[C@]32OO4 [Artemisinin, artemisinin]
bioavailability [3]: less than 10%

GLP-1
half-life in the circulatory system [3]: < 2 min
